Experimental findings from patent publication US20250282776A1, “Bicyclic TLR7 Agonists and Uses Thereof” (Bristol-Myers Squibb Company, priority 2024, published 2025) are described below.

The structures appear in SMILES notation.

One experiment concerns the target T1, human TLR8 (hTLR8) (Homo sapiens, UniProt Q9NR97).
T1 construct: expressed in transfected cells
T1 sequence (Q9NR97 27-1041): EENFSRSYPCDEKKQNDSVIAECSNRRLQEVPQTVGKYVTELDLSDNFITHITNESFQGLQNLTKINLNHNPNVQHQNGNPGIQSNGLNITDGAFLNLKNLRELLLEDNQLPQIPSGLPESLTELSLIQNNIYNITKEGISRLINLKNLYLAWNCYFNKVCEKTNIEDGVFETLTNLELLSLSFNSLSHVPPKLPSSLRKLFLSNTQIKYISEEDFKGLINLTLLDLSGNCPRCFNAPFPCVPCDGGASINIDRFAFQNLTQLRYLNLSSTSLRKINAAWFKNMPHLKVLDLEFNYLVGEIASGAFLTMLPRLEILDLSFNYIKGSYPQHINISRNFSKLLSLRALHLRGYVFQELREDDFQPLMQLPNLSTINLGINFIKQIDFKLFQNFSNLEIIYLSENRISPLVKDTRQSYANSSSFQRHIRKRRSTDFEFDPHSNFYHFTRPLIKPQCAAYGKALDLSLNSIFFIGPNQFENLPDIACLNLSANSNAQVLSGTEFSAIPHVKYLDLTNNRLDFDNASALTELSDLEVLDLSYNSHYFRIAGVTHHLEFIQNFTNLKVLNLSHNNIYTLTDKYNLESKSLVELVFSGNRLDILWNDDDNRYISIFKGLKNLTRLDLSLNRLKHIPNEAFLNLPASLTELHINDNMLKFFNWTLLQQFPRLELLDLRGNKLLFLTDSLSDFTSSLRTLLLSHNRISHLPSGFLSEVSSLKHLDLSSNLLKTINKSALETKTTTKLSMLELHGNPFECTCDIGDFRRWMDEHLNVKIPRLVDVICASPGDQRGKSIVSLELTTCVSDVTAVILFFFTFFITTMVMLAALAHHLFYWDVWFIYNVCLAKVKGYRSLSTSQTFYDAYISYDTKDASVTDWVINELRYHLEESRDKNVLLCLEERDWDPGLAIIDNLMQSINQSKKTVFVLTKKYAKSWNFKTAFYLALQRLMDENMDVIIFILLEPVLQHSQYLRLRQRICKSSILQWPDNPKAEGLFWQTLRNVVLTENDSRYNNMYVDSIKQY
Briefly: Human TLR8 agonist activity assay (measured in a similar manner). It is filed as cell-based. The conditions noted are these: HEK-Blue TLR cells, SEAP reporter, measured in a similar manner to TLR7; some values average of multiple measurements. Summed up: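 Compounds were added to HEK-Blue TLR8 reporter cells, pre-incubated 16-18 h, then treated 18 h at 37° C, 5% CO2. SEAP output was measured with Quanti-Blue (30 min) at OD 620 nm. Some values are averages of multiple measurements.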

A further experiment addresses T2, human TLR7 (hTLR7) (Homo sapiens, UniProt Q9NYK1).
T2 construct: host or cells: HEK-Blue TLR7 cells (engineered human embryonic kidney cells)
T2 sequence (Q9NYK1 27-1049): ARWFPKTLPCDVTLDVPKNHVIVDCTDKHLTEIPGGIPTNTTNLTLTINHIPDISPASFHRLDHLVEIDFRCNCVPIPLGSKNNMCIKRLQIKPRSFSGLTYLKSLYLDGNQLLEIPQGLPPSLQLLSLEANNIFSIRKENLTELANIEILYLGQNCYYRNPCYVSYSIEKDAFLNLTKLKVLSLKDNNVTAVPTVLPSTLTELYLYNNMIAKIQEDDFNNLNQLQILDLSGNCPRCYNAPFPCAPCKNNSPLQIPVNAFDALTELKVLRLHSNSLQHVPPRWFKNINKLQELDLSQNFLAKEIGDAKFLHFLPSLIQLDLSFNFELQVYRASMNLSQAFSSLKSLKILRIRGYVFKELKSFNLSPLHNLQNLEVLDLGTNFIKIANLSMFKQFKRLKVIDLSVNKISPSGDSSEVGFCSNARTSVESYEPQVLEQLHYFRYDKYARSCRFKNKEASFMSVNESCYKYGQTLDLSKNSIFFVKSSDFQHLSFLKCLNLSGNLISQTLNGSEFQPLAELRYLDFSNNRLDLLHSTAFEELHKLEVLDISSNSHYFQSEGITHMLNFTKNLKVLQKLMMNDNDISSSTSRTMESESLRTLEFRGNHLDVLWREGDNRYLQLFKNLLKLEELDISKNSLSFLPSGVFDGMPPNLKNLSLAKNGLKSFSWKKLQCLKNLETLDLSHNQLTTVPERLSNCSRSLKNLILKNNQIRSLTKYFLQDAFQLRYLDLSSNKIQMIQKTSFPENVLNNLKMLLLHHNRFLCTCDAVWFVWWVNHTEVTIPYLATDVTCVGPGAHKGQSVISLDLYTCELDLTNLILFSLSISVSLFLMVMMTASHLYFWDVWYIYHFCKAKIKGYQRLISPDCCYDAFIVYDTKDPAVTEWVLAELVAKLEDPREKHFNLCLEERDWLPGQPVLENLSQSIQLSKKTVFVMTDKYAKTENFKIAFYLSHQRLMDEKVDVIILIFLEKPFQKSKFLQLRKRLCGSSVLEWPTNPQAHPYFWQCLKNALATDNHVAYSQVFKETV
Briefly: Human TLR7 agonist activity assay (HEK-Blue TLR7 SEAP reporter). It is filed as cell-based. The conditions noted are these: HEK-Blue TLR7 cells, 18 h incubation, Quanti-Blue, OD 620 nm, some values average of multiple measurements. In outline: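 HEK-Blue TLR7 cells seeded 16-18 h, then exposed to compound for 18 h at 37 °C, 5% CO2. Secreted SEAP read with Quanti-Blue at OD 620 nm after 30 min. EC50 taken as concentration giving half-maximal response between baseline and maximum; some values averaged over repeats.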

Consider `CCCCN(CCO)c1nc(N)nc2cn(Cc3cccc4c3OCCN4C(=O)CN(C)C)nc12` [Compound 90], for which the EC50 on human TLR8 (hTLR8) came out at 2410 nM; at human TLR7 (hTLR7), 2150 nM.
In the same order, the values of `CCCCN(CCO)c1nc(N)nc2cn(Cc3c(F)cc(C4CCN(C)CC4)cc3OC)nc12` [Compound 47] are 538 nM and 186 nM.
Taken in the same sequence, the figures for `CCCCN(CCO)c1nc(N)nc2cn(Cc3ccc(CNC(C)(C)C)c4c3OCCC4)nc12` [Compound 148] were 462 nM and 1840 nM.
Taken in the same sequence, the figures for `CCCCN(CCO)c1nc(N)nc2cn(Cc3c(OC)cc(CNC4CCOCC4)cc3OC)nc12` [Compound 144] were 2060 nM and 1870 nM.
On to `CCCCCNCc1ccc(Cn2cc3nc(N)nc(N(CCO)CCCC)c3n2)c2ncccc12` [Compound 57], for which the results for the EC50 on human TLR8 (hTLR8) and on human TLR7 (hTLR7) were 1390 nM and 2000 nM, respectively.
Taken in the same sequence, the figures for `CCCCCN(CCO)c1nc(N)nc2cn(Cc3ccc(CN[C@@H]4CCOC4)cc3OC)nc12` [Compound 70] were 1060 nM and 1050 nM.
Taken in the same sequence, the figures for `CCCCN(CCO)c1nc(N)nc2cn(Cc3c(F)cc(C4CCNCC4)cc3OC)nc12` [Compound 16] were 2500 nM and 749 nM.
In the same order, the values of `CCCCN(CCO)c1nc(N)nc2cn(Cc3ccc(CNC4CCC4)n4ncnc34)nc12` [Compound 175, 2-((5-Amino-2-((5-((cyclobutylamino)methyl)-[1,2,4]triazolo[1,5-a]pyridin-8-yl)methyl)-2H-pyrazolo[4,3-d]pyrimidin-7-yl)(butyl)amino)ethan-1-ol] are 328 nM and 307 nM.
Turning to `CCCCN(CCO)c1nc(N)nc2cn(Cc3ccc(CNC4CCOC(C)(C)C4)cc3OC)nc12` (single isomer, unassigned) [Compound 112, 2-((5-Amino-2-(4-(((2,2-dimethyltetrahydro-2H-pyran-4-yl)amino)methyl)-2-methoxybenzyl)-2H-pyrazolo[4,3-d]pyrimidin-7-yl)(butyl)amino) ethan-1-ol], the EC50 on human TLR8 (hTLR8) worked out at 562 nM; on human TLR7 (hTLR7), 585 nM.
Consider `CCCCN(CCO)c1nc(N)nc2cn(Cc3c(OC)cc(CNCCOC)cc3OC)nc12` [Compound 143], for which the EC50 at human TLR8 (hTLR8) was 1870 nM; at human TLR7 (hTLR7), 1700 nM.
In the same order, the values of `CCCCN(CCO)c1nc(N)nc2cn(Cc3cc(OC)c(C4CCN(CCOC)CC4)cc3OC)nc12` [Compound 106] are 2500 nM and 1140 nM.
Taken in the same sequence, the figures for `CCCCN(CCO)c1nc(N)nc2cn(Cc3ccc(CNC4CCOC(C)(C)C4)cc3OC)nc12` (single isomer, unassigned) [Compound 111, 2-((5-Amino-2-(4-(((2,2-dimethyltetrahydro-2H-pyran-4-yl)amino)methyl)-2-methoxybenzyl)-2H-pyrazolo[4,3-d]pyrimidin-7-yl)(butyl)amino) ethan-1-ol] were 453 nM and 654 nM.
`CCCCN(CCO)c1nc(N)nc2cn(Cc3ccc(CN[C@H]4CCN(C(C)C)C4)cc3OC)nc12` [Compound 56]: the EC50 at human TLR8 (hTLR8) was 2310 nM; on human TLR7 (hTLR7) it was 1700 nM.
In the same order, the values of `CCCCN(CCO)c1nc(N)nc2cn(Cc3ccc(CN4CCN(CCO)CC4)cc3OC)nc12` [Compound 19] are 1470 nM and 696 nM.
Taken in the same sequence, the figures for `CCCCN(CCO)c1nc(N)nc2cn(Cc3ccc(CNCC(C)(C)O)cc3OC)nc12` [Compound 9] were 1250 nM and 1620 nM.
Turning to `CCCCN(CCO)c1nc(N)nc2cn(Cc3c(F)cc(C4CCN(CCO)CC4)cc3OC)nc12` [Compound 35], the EC50 stood at 1850 nM at human TLR8 (hTLR8) and 551 nM on human TLR7 (hTLR7).
Taken in the same sequence, the figures for `CCCCN(CCO)c1nc(N)nc2cn(Cc3ccc(CN4CC(O)C4)cc3OC)nc12` [Compound 20] were 705 nM and 1180 nM.
In the same order, the values of `CCCCN(CCO)c1nc(N)nc2cn(Cc3ccc(CN4CC(OC)C4)cc3OC)nc12` [Compound 5] are 700 nM and 643 nM.
Taken in the same sequence, the figures for `CCCCN(CCO)c1nc(N)nc2cn(Cc3ccc(CN[C@H]4CC[C@H](O)CC4)c4cccnc34)nc12` [Compound 169] were 628 nM and 1090 nM.
Regarding `CCCCN(CCO)c1nc(N)nc2cn(Cc3ccc(CN4CC(CCOC)C4)c4cccnc34)nc12` [Compound 48], the EC50 on human TLR8 (hTLR8) turned out to be 227 nM; at human TLR7 (hTLR7) it was 182 nM.
In the same order, the values of `CCCCN(CCO)c1nc(N)nc2cn(Cc3c(F)cc(C4CCN(CCOC)CC4)cc3C#N)nc12` [Compound 149] are 1810 nM and 561 nM.
Taken in the same sequence, the figures for `CCCCN(CCO)c1nc(N)nc2cn(Cc3ccc(CNC4CCCOC4)cc3OC)nc12` (centres unmarked) [Compound 105] were 2780 nM and 1820 nM.
Taken in the same sequence, the figures for `CCCCN(CCO)c1nc(N)nc2cn(Cc3c(F)cc(CNCCOC)cc3F)nc12` [Compound 114] were 1830 nM and 1060 nM.
In the case of `CCCCN(CCO)c1nc(N)nc2cn(Cc3ccc(CNC4CCCOC4)cc3OC)nc12` (centres unmarked) [Compound 104], the EC50 at human TLR8 (hTLR8) came out at 2160 nM; on human TLR7 (hTLR7), 1750 nM.
As to `CCCCN(CCO)c1nc(N)nc2cn(Cc3c(F)cc(C4CCN(CC(C)(C)O)CC4)cc3OC)nc12` [Compound 36], the EC50 on human TLR8 (hTLR8) is 525 nM; at human TLR7 (hTLR7), 144 nM.
In the same order, the values of `CCCCN(CCO)c1nc(N)nc2cn(Cc3c(F)cc(C4CCC(N(C)CCOC)CC4)cc3OC)nc12` (centres unmarked) [Compound 199] are 1620 nM and 274 nM.
In the same order, the values of `CCCCN(CCO)c1nc(N)nc2cn(Cc3ccc(CN[C@@H]4COC[C@@H]4F)cc3OC)nc12` [Compound 54] are 1500 nM and 1330 nM.
In the same order, the values of `CCCCN(CCO)c1nc(N)nc2cn(Cc3ccc(CN[C@@H]4CCOC4)cc3OC)nc12` [Compound 53] are 486 nM and 731 nM.
For the compound `CCCCN(CCO)c1nc(N)nc2cn(Cc3ccc(CN[C@H]4CC[C@H](CO)CC4)cc3C(F)F)nc12` [Compound 131], the EC50 amounted to 3330 nM on human TLR8 (hTLR8) and 1280 nM at human TLR7 (hTLR7).
In the same order, the values of `COc1cc(CN[C@H]2C[C@H](OC)C2)ccc1Cn1cc2nc(N)nc(N(CCO)CCCCF)c2n1` [Compound 170] are 2500 nM and 1800 nM.
In the case of `CCCCN(CCO)c1nc(N)nc2cn(Cc3c(F)cc(C4CCN(C5CCOCC5)CC4)cc3C#N)nc12` [Compound 150], the EC50 amounted to 2100 nM at human TLR8 (hTLR8) and 1130 nM on human TLR7 (hTLR7).
